# Data taken from paper PMC3287010, “Pharmacokinetic Study of Di-Phenyl-Di-(2,4-Difluobenzohydroxamato)Tin(IV): Novel Metal-Based Complex with Promising Antitumor Potential” (Bioinorganic Chemistry and Applications, 2012).
# Experiments:
# [1] = Stability of DPDFT in rat plasma QC samples (freeze/thaw, storage, autosampler); format: in vitro ADME; settings: 72 h at 4°C
# [2] = Stability of stock solution stored at 4°C; format: physicochemical; settings: stock solution in methanol
# Procedure: A stock solution of DPDFT was prepared in methanol at the concentration of 100 mg·mL^−1 and was further diluted in HPLC mobile phase to make working standards. The I.S. stock solution was prepared and diluted to 50.0 μg·mL^−1 working solution with HPLC mobile phase. All the stock solutions were maintained at 4°C until use.
# Stability of DPDFT during storage and processing was checked using quality control samples. The DPDFT and I.S. stock solutions were stable for at least 2 months when stored at 4°C. The deviation of the mean test responses was within ±10% of appropriate controls in all stability tests of DPDFT in rat plasma. After three freeze-thaw cycles, the concentration changes of DPDFT were less than 7%. The analyte was stable in the matrices at 4, −20°C and room temperature for 72 h without significant degradation (<8%).
# [3] = Stability of DPDFT in rat plasma QC samples (freeze/thaw, storage, autosampler); format: in vitro ADME
# Procedure: Quality control (QC) samples were used to determine the accuracy and precision of method and were independently prepared at low (0.8 μg·mL^−1), medium (4 μg·mL^−1), and high (20 μg·mL^−1) concentrations. To evaluate the accuracy and precision, we used at least five QC samples of three different concentrations of DPDFT. The intraday and interday accuracies were expressed as the percentage difference between the measured concentration and the nominal concentration in rat plasma. The intraday precision and accuracy were calculated using replicate (n = 6) determinations for each concentration of the spiked plasma sample during a single analytical run. The interassay precision and accuracy were calculated using replicate (n = 6) determinations of each concentration made on three separate days. The variability of determination was expressed as the relative standard deviation (RSD) which should be ≤15%, covering the range of actual experimental concentrations.
# The stability of DPDFT in rat plasma was assessed by analyzing replicates (n = 6) of QC samples at concentrations of 0.8, 4, 20 μg·mL^−1, respectively. The investigation covered the expected conditions during all of the sample storage and process periods, which included the stability data from freeze/thaw cycle and long-term stability tests. The concentrations obtained from stability studies were compared with the freshly prepared QC samples, and the percentage concentration deviation was calculated. In each freeze–thaw cycle, the samples were frozen and stored at −20°C for 10 days, then thawed at room temperature. The stability of the fresh plasma samples was tested after keeping the samples at […], −20°C and room temperature for 72 h. The stability of deproteinized samples at 10°C in the autosampler was evaluated up to 24 h.
# [4] = Pharmacokinetic study in rats after single intravenous administration (HPLC-UV plasma determination, two-compartment model, 3p97 software); format: in vivo, Wistar albino rats; set-up: AUC / CL(s): unit not given here; settings: for A / B / CL(s) / K 10 (first order elimination from compartment 1) / K 12 (first order transfer from compartment 1 to compartment 2) / K 21 (first order transfer from compartment 2 to compartment 1) / V d / t 1/2a (distribution half-life) / t 1/2β (elimination half-life) / β: mean ± SD, n = 6
# Procedure: Laboratory bred adult Wistar albino rats (200–250 g), which were supplied by the Animal Research Center at Shanxi Medical University (Taiyuan, Shanxi Province, China), were housed at 25 ± 2°C in a well-ventilated animal house under 12 : 12 h light dark cycle. The animals drank sterilized drinking water, and standard chow diet was supplied ad libitum to each cage. The animal experiments were performed in accordance with the ARVO Statement for the Use of Animals in Ophthalmic and Vision Research and were approved by the Animal Ethics Committee of Shanxi Medical University.
# HPLC analysis was carried out using a Waters 2695 HPLC system (Waters Associates, Milford, MA) which consisted of a photodiode array detector, an autosampler, and a degasser. The apparatus was interfaced to a DELL PC compatible computer using Empower Pro software for data acquisition. The sensitivity was 0.2 AUFS. The autosampler was cooled to 10°C. The column was maintained at room temperature. Chromatographic separation of DPDFT and the I.S. was achieved on a Diamonsil C18 column (250 mm × 4.6 mm, 5 μm) from Dikma Technologies (Beijing, China) protected by a SHIMADZU LC guard column at 25°C. The mobile phase for HPLC analysis consisted of phosphoric acid in water (solvent A)/methanol (solvent B) (30 : 70, V/V, pH 3.0) with a flow rate of 0.8 mL·min^−1. A sample volume of 20 μL was injected. Prior to use, the mobile phase was filtered through a 0.45 μm hydrophilic membrane filter. The photodiode array detector was set at a wavelength of 228 nm at room temperature. Under the chromatographic condition mentioned above, DPDFT and the I.S. acetanilide could be separated completely in the chromatograms (R > 1.5), and there was no endogenous interference with the chromatographic peak of DPDFT and the I.S.acetanilide. Besides, the retention time of acetanilide (t R = 15.67 min) was very suitable as the I.S. compared to that of DPDFT (t R = 8.34 min).
# Blood samples collected from rat blood plasma were immediately transferred to 1.5 mL heparinized microcentrifuge tubes from fossa orbitalis of rats, and then processed for plasma by centrifugation. The supernatant plasma (0.2 mL) was then vortex-mixed with methanol (0.4 mL) containing acetanilide (0.2 mL, 50.0 μg·mL^−1) as internal standard (I.S.) for 30 s. After vortex-mixing, the mixture was centrifuged at 13000 rpm for 10 min 4°C to separate precipitated proteins. The supernatant solution of methanol layer was filtered through a 0.45 μm membrane filter. Twenty microliters of filtrate were injected into the chromatography. The same sample processing was also applied to the recovery and to the precision study in plasma. All harvested samples stored at −4°C were brought to room temperature before use and analyzed within one week.
# To evaluate the suitability of the assay for pharmacokinetic studies, 7.5, 15, and 30 mg·kg^−1 of DPDFT were intravenously administered to rats (half males and half females, resp.). Six animals were used in each dosage by direct injection into a lateral tail vein, with a duration of infusion less than 1 min. Heparinized blood samples (0.5 mL) were collected at 0, 1, 3, 5, 10, 30, 60, and 120 min after injection. […]. After each sampling, the removed volume of blood was supplemented with an equal volume of sodium chloride. The blood samples were immediately centrifuged and the resulting plasma was prepared according to the procedure given for the calibrators. Pharmacokinetic calculations were performed using the observed data. […] All values obtained were expressed in mean ± standard deviation.
# [5] = rats, i.v., 15 mg·kg^−1 (middle)
# [6] = rats, i.v., 7.5, 15, and 30 mg·kg^−1
compound,measurement,setting,value
"O=C(N[O][Sn]([O]NC(=O)c1ccc(F)cc1F)([c]1ccccc1)[c]1ccccc1)c1ccc(F)cc1F [DPDFT, Di-phenyl-di-(2,4-difluobenzohydroxamato)tin(IV)]",Accuracy = [(Cobs − Cnom)/Cnom] × 100,[1]; nominal 4 μg·mL^−1,−7.50%
same,Observed concentration ± SD,"[1]; nominal 20 μg·mL^−1, n = 6",21.14 ± 1.27 µg/mL
same,time stock solution was stable,[2],at least 2 months
same,deviation of the mean test responses from appropriate controls,[3]; all stability tests in rat plasma,≤ 10%
same,run-time stability (concentration change),"[3]; deproteinized rat plasma, 10°C for up to 24 h",< 6%
same,Accuracy = [(Cobs − Cnom)/Cnom] × 100,"[3]; deproteinized rat plasma, autosampler 24 h at 10°C, nominal 0.8 μg·mL^−1",3.75%
same,Observed concentration ± SD,"[3]; deproteinized rat plasma, autosampler 24 h at 10°C, nominal 0.8 μg·mL^−1, n = 6",0.83 ± 0.04 µg/mL
same,Accuracy = [(Cobs − Cnom)/Cnom] × 100,"[3]; deproteinized rat plasma, autosampler 24 h at 10°C, nominal 4 μg·mL^−1",−4.25%
same,Observed concentration ± SD,"[3]; deproteinized rat plasma, autosampler 24 h at 10°C, nominal 4 μg·mL^−1, n = 6",3.83 ± 0.18 µg/mL
same,Accuracy = [(Cobs − Cnom)/Cnom] × 100,"[3]; deproteinized rat plasma, autosampler 24 h at 10°C, nominal 20 μg·mL^−1",−4.05%
same,Observed concentration ± SD,"[3]; deproteinized rat plasma, autosampler 24 h at 10°C, nominal 20 μg·mL^−1, n = 6",19.19 ± 1.08 µg/mL
same,degradation in the matrices,"[3]; rat plasma, 4, −20°C and room temperature for 72 h",< 8%
same,Accuracy = [(Cobs − Cnom)/Cnom] × 100,"[3]; rat plasma, 72 h at 4°C, nominal 0.8 μg·mL^−1",8.75%
same,Observed concentration ± SD,"[3]; rat plasma, 72 h at 4°C, nominal 0.8 μg·mL^−1, n = 6",0.87 ± 0.04 µg/mL
same,Observed concentration ± SD,"[3]; rat plasma, 72 h at 4°C, nominal 4 μg·mL^−1, n = 6",3.70 ± 0.16 µg/mL
same,Accuracy = [(Cobs − Cnom)/Cnom] × 100,"[3]; rat plasma, 72 h at 4°C, nominal 20 μg·mL^−1",5.70%
same,Accuracy = [(Cobs − Cnom)/Cnom] × 100,"[3]; rat plasma, 72 h at room temperature, nominal 0.8 μg·mL^−1",−2.50%
same,Observed concentration ± SD,"[3]; rat plasma, 72 h at room temperature, nominal 0.8 μg·mL^−1, n = 6",0.78 ± 0.05 µg/mL
same,Accuracy = [(Cobs − Cnom)/Cnom] × 100,"[3]; rat plasma, 72 h at room temperature, nominal 4 μg·mL^−1",−3.25%
same,Observed concentration ± SD,"[3]; rat plasma, 72 h at room temperature, nominal 4 μg·mL^−1, n = 6",3.87 ± 0.19 µg/mL
same,Observed concentration ± SD,"[3]; rat plasma, 72 h at room temperature, nominal 20 μg·mL^−1, n = 6",19.46 ± 1.19 µg/mL
same,Accuracy = [(Cobs − Cnom)/Cnom] × 100,"[3]; rat plasma, 72 h at −20°C, nominal 0.8 μg·mL^−1",−7.50%
same,Observed concentration ± SD,"[3]; rat plasma, 72 h at −20°C, nominal 0.8 μg·mL^−1, n = 6",0.74 ± 0.05 µg/mL
same,Accuracy = [(Cobs − Cnom)/Cnom] × 100,"[3]; rat plasma, 72 h at −20°C, nominal 4 μg·mL^−1",5.50%
same,Observed concentration ± SD,"[3]; rat plasma, 72 h at −20°C, nominal 4 μg·mL^−1, n = 6",4.22 ± 0.12 µg/mL
same,Accuracy = [(Cobs − Cnom)/Cnom] × 100,"[3]; rat plasma, 72 h at −20°C, nominal 20 μg·mL^−1",−4.35%
same,Observed concentration ± SD,"[3]; rat plasma, 72 h at −20°C, nominal 20 μg·mL^−1, n = 6",19.13 ± 1.53 µg/mL
same,concentration changes after three freeze-thaw cycles,"[3]; rat plasma, frozen at −20°C, thawed at room temperature",less than 7%
same,Accuracy = [(Cobs − Cnom)/Cnom] × 100,"[3]; rat plasma, three freeze and thaw cycles, nominal 0.8 μg·mL^−1",−5.00%
same,Observed concentration ± SD,"[3]; rat plasma, three freeze and thaw cycles, nominal 0.8 μg·mL^−1, n = 6",0.76 ± 0.05 µg/mL
same,Accuracy = [(Cobs − Cnom)/Cnom] × 100,"[3]; rat plasma, three freeze and thaw cycles, nominal 4 μg·mL^−1",−5.25%
same,Observed concentration ± SD,"[3]; rat plasma, three freeze and thaw cycles, nominal 4 μg·mL^−1, n = 6",3.79 ± 0.13 µg/mL
same,Accuracy = [(Cobs − Cnom)/Cnom] × 100,"[3]; rat plasma, three freeze and thaw cycles, nominal 20 μg·mL^−1",−5.15%
same,Observed concentration ± SD,"[3]; rat plasma, three freeze and thaw cycles, nominal 20 μg·mL^−1, n = 6",18.97 ± 1.17 µg/mL
same,DPDFT concentration in blood sample,"[4]; collected at 3 min after administration of 15 mg·kg^−1, i.v.",2.4 µg/mL
same,A,"[4]; rats, i.v., 7.5 mg·kg^−1 (low)",2.21 ± 0.03 min⁻¹
same,B,"[4]; rats, i.v., 7.5 mg·kg^−1 (low)",0.15 ± 0.04 mg/kg
same,CL(s),"[4]; rats, i.v., 7.5 mg·kg^−1 (low)",0.66 ± 0.05
same,K 10 (first order elimination from compartment 1),"[4]; rats, i.v., 7.5 mg·kg^−1 (low)",0.32 ± 0.05 min⁻¹
same,K 12 (first order transfer from compartment 1 to compartment 2),"[4]; rats, i.v., 7.5 mg·kg^−1 (low)",0.26 ± 0.04 min⁻¹
same,K 21 (first order transfer from compartment 2 to compartment 1),"[4]; rats, i.v., 7.5 mg·kg^−1 (low)",0.08 ± 0.004 min⁻¹
same,V d,"[4]; rats, i.v., 7.5 mg·kg^−1 (low)",2.13 ± 0.07 L/kg
same,t 1/2a (distribution half-life),"[4]; rats, i.v., 7.5 mg·kg^−1 (low)",1.04 ± 0.01 min
same,t 1/2β (elimination half-life),"[4]; rats, i.v., 7.5 mg·kg^−1 (low)",17.68 ± 2.6 min
same,β,"[4]; rats, i.v., 7.5 mg·kg^−1 (low)",0.04 ± 0.003 min⁻¹
same,A,[4]; [5],7.94 ± 3.12 min⁻¹
same,B,[4]; [5],0.92 ± 0.04 mg/kg
same,CL(s),[4]; [5],0.27 ± 0.02
same,K 10 (first order elimination from compartment 1),[4]; [5],0.24 ± 0.08 min⁻¹
same,K 12 (first order transfer from compartment 1 to compartment 2),[4]; [5],0.38 ± 0.01 min⁻¹
same,K 21 (first order transfer from compartment 2 to compartment 1),[4]; [5],0.11 ± 0.01 min⁻¹
same,V d,[4]; [5],1.13 ± 0.08 L/kg
same,t 1/2a (distribution half-life),[4]; [5],1.01 ± 0.01 min
same,t 1/2β (elimination half-life),[4]; [5],19.38 ± 3.6 min
same,β,[4]; [5],0.04 ± 0.003 min⁻¹
same,A,"[4]; rats, i.v., 30 mg·kg^−1 (high)",22.36 ± 8.12 min⁻¹
same,B,"[4]; rats, i.v., 30 mg·kg^−1 (high)",1.85 ± 0.44 mg/kg
same,K 10 (first order elimination from compartment 1),"[4]; rats, i.v., 30 mg·kg^−1 (high)",0.30 ± 0.18 min⁻¹
same,K 12 (first order transfer from compartment 1 to compartment 2),"[4]; rats, i.v., 30 mg·kg^−1 (high)",0.28 ± 0.11 min⁻¹
same,K 21 (first order transfer from compartment 2 to compartment 1),"[4]; rats, i.v., 30 mg·kg^−1 (high)",0.09 ± 0.01 min⁻¹
same,V d,"[4]; rats, i.v., 30 mg·kg^−1 (high)",0.62 ± 0.08 L/kg
same,t 1/2a (distribution half-life),"[4]; rats, i.v., 30 mg·kg^−1 (high)",1.12 ± 0.1 min
same,t 1/2β (elimination half-life),"[4]; rats, i.v., 30 mg·kg^−1 (high)",16.81 ± 3.6 min
same,β,"[4]; rats, i.v., 30 mg·kg^−1 (high)",0.04 ± 0.003 min⁻¹
same,compartment model fitted to concentration-time data,[4]; [6],two-compartment model
same,difference in pharmacokinetic parameters between male and female rats,[4]; [6],no significant differences
same,dose linearity of pharmacokinetics,"[4]; rats, i.v., from 7.5 to 30 mg/kg",nonlinear process
